Data as given in patent US10370436B2, “Anti-pseudomonas Psl binding molecules and uses thereof” (priority 2011, dated 2019).

Experiments:
[1] = tested on: mucoid P. aeruginosa strains derived from cystic fibrosis patients; experiment: OPK assay, mucoid isolates; assay type: cell-based, Pseudomonas aeruginosa; settings: FIG. 2D
Description: (§1) This example describes the evaluation of prioritized human IgG1 antibodies to promote OPK of P. aeruginosa. […] OPK assays were performed as described in (DiGiandomenico, A., et al., Infect Immun 72, 7012-7021 (2004)), with modifications. Briefly, assays were performed in 96-well plates using 0.025 ml of each OPK component; P. aeruginosa strains; diluted baby rabbit serum; differentiated HL-60 cells; and monoclonal antibody. In some OPK assays, luminescent P. aeruginosa strains, which were constructed as described (Choi, K. H., et al., Nat Methods 2, 443-448 (2005)), were used. Luminescent OPK assays were performed as described above but with determination of relative luciferase units (RLUs) using a Perkin Elmer ENVISION Multilabel plate reader (Perkin Elmer).
The ability of Cam-003 to mediate OPK activity against representative non-mucoid strains from clinically relevant O-antigen serotypes and against mucoid P. aeruginosa strains which were derived from cystic fibrosis patients was evaluated.

[2] = tested on: PAO1ΔpslA; experiment: OPK assay, Psl-deficient PAO1ΔpslA and complemented strain; assay type: cell-based, Pseudomonas aeruginosa; settings: complemented PAO1ΔpslA in contrast to the mutant; FIGS. 3F, 3G
Description: as §1, with “Elmer). […]” for “Elmer).”
This example describes two series of experiments evaluating the ability of PMB-mAb conjugates to promote OPK of P. aeruginosa. In the first experiments (FIGS. 15A-B), conjugate-mediated OPK activity by human HL-60 neutrophil cell line in the presence of rabbit complement was evaluated using P. aeruginosa strains expressing bacterial luciferase as described in Example 2. […] In the second series of experiments, reduction in luminescence following 2 h incubation relative to control lacking mAb was used to determine % killing.

[3] = tested on: P. aeruginosa 6077 (O11-cytotoxic); experiment: P. aeruginosa corneal infection (keratitis) model; assay type: in vivo, mice; settings: versus negative control-treated animals, 24 hours after infection
Description: FIG. 8 (A-G): Anti-Psl monoclonal antibodies Cam-003 and WapR-004 are active in a P. aeruginosa keratitis model and thermal injury model. Mice were treated with a control IgG1 antibody or Cam-003 at 45 mg/kg (A, B) or 15 mg/kg (C, D) or PBS or a control IgG1 antibody or Cam-003 at 45 mg/kg or WapR-004 at 45 mg/kg or 15 mg/kg or 5 mg/kg (F, G) 24 hours prior to infection with 6077 (O11-cytotoxic—2×10^6 CFU). Immediately before infection, three 1 mm scratches were made on the left cornea of each animal followed by topical application of P. aeruginosa in a 5 μl inoculum. 24 hours after infection, the corneal pathology scores were calculated followed by removal of the eye for determination of viable CFU. Differences in pathology scores and viable CFU were determined by the Mann-Whitney U-test. (A) P=0.0001, (B) P<0.0001, (C) P=0.0003, (D) P=0.0015. (F) and (G) Cam-003 (45 mg/kg) vs. WapR-004 (45 mg/kg): P=0.018; Cam-003 (45 mg/kg) vs. WapR-004 (15 mg/kg): P=0.0025; WapR-004 (45 mg/kg) vs. WapR-004 (15 mg/kg): P=0.1331; WapR-004 (5 mg/kg) vs. Ctrl: P<0.0001. Results are representative of five independent experiments. (E) Survival analysis from Cam-003 and R347 treated CF-1 mice in a P. aeruginosa thermal injury model after 6077 infection (2×10^5 CFU) (log-rank: R347 vs. Cam-003 15 mg/kg, P=0.0094; R347 vs. Cam-003 5 mg/kg, P=0.0017). […]

Cam-003: human IgG1 anti-Psl monoclonal antibody, VH SEQ ID NO: 1 and VL SEQ ID NO: 2
OPK activity [1]: mediated potent killing of all mucoid P. aeruginosa isolates that were tested | ability to mediate opsonic killing [2]: restored | bacterial counts in total eye homogenates [3]: reduced bacterial counts | corneal pathology ([3]; FIGS. 8A-D, F-G): significantly less pathology
